≈ marks a conversion by molar mass, not a printed value. Calls of active or inactive are those of the source. The calls are words filed in the database; no cut-off is given here.
Experiments:
Format in all cases: functional
[1] = system: Mycobacterium tuberculosis; assay: Antitubercular activity against Mycobacterium tuberculosis H37Rv after 21 days by broth microdilution method; details: 504 h
Staphylococcus aureus [2] = assay: Antibacterial activity against Staphylococcus aureus ATCC 6538 by disk diffusion method
Escherichia coli [3] = assay: Antibacterial activity against Escherichia coli ATCC 8739 by disk diffusion method
Proteus mirabilis [4] = assay: Antibacterial activity against Proteus mirabilis ATCC 14153 by disk diffusion method
Klebsiella pneumoniae [5] = assay: Antibacterial activity against Klebsiella pneumoniae ATCC 4352 by tube dilution method
Klebsiella pneumoniae [6] = assay: Antibacterial activity against Klebsiella pneumoniae ATCC 4352 by disk diffusion method
Streptococcus [7] = assay: Antibacterial activity against beta-haemolyticus Streptococcus isolate by tube dilution method
Streptococcus [8] = assay: Antibacterial activity against beta-haemolyticus Streptococcus isolate by disk diffusion method
Enterococcus faecalis [9] = assay: Antibacterial activity against Enterococcus faecalis ATCC 29212 by disk diffusion method
Pseudomonas aeruginosa [10] = assay: Antibacterial activity against Pseudomonas aeruginosa ATCC 9027 by tube dilution method
Pseudomonas aeruginosa [11] = assay: Antibacterial activity against Pseudomonas aeruginosa ATCC 9027 by disk diffusion method
Escherichia coli [12] = assay: Antibacterial activity against Escherichia coli ATCC 8739 by tube dilution method
Staphylococcus aureus [13] = assay: Antibacterial activity against Staphylococcus aureus ATCC 6538 by tube dilution method
Proteus mirabilis [14] = assay: Antibacterial activity against Proteus mirabilis ATCC 14153 by tube dilution method
Enterococcus faecalis [15] = assay: Antibacterial activity against Enterococcus faecalis ATCC 29212 by tube dilution method

Structure (SMILES): Cc1ccc2c(ccc3cc(C(C)C)c(O)cc32)c1C
- MIC [1]: 0.46 µg/mL (≈ 1.74 µM)
- Activity (Staphylococcus aureus [2]): inactive
- Activity (Escherichia coli [3]): inactive
- Activity (Proteus mirabilis [4]): inactive
- MIC (Klebsiella pneumoniae [5]): 15.6 µg/mL (≈ 59 µM)
- inhibition zone (IZ) (Klebsiella pneumoniae [6]): >7 mm
- MIC (Streptococcus [7]): 2 µg/mL (≈ 7.57 µM)
- inhibition zone (IZ) (Streptococcus [8]): >7 mm
- Activity (Enterococcus faecalis [9]): inactive
- MIC (Pseudomonas aeruginosa [10]): 15.6 µg/mL (≈ 59 µM)
- inhibition zone (IZ) (Pseudomonas aeruginosa [11]): >7 mm

Structure (SMILES): COC1=C(C(C)C)C(=O)C2=C(C1=O)[C@@]1(C)CCCC(C)(C)C1=C[C@H]2O
- MIC [1]: 1.2 µg/mL (≈ 3.48 µM)

Structure (SMILES): COC1=C(C(C)C)C(=O)C2=C(C1=O)[C@@]1(C)CCCC(C)(C)C1=C[C@H]2OC(C)=O
- MIC [1]: 0.89 µg/mL (≈ 2.3 µM)
- Activity (Staphylococcus aureus [2]): inactive
- Activity (Escherichia coli [3]): inactive
- Activity (Proteus mirabilis [4]): inactive
- MIC (Klebsiella pneumoniae [5]): 7.2 µg/mL (≈ 18.6 µM)
- inhibition zone (IZ) (Klebsiella pneumoniae [6]): >7 mm
- Activity (Streptococcus [8]): inactive
- Activity (Enterococcus faecalis [9]): inactive
- Activity (Pseudomonas aeruginosa [11]): inactive

Structure (SMILES): Nc1ccc(C(=O)O)c(O)c1 [AMINOSALICYLIC ACID]
- MIC [1]: 5 µg/mL (≈ 32.7 µM)

Structure (SMILES): Cc1c(O)cc2c3c(ccc2c1C)C=C(C(C)C)C(=O)C3=O [DEMETHYLMULTIORTHOQUINONE]
- MIC [1]: 1.2 µg/mL (≈ 4.08 µM)
- Activity (Staphylococcus aureus [2]): inactive
- MIC (Escherichia coli [12]): 4.6 µg/mL (≈ 15.6 µM)
- inhibition zone (IZ) (Escherichia coli [3]): >7 mm
- Activity (Proteus mirabilis [4]): inactive
- Activity (Klebsiella pneumoniae [6]): inactive
- Activity (Streptococcus [8]): inactive
- Activity (Enterococcus faecalis [9]): inactive
- Activity (Pseudomonas aeruginosa [11]): inactive

Structure (SMILES): CC[C@@H](CO)NCCN[C@@H](CC)CO [ETHAMBUTOL]
- MIC [1]: 5 µg/mL (≈ 24.5 µM)

Structure (SMILES): CCc1cc(C(N)=S)ccn1 [ETHIONAMIDE]
- MIC [1]: 5 µg/mL (≈ 30.1 µM)

Structure (SMILES): NNC(=O)c1ccncc1 [ISONIAZID]
- MIC [1]: 0.2 µg/mL (≈ 1.46 µM)

Structure (SMILES): NC[C@H]1O[C@H](O[C@H]2[C@H](O)[C@@H](O[C@H]3O[C@H](CO)[C@@H](O)[C@H](N)[C@H]3O)[C@H](N)C[C@@H]2N)[C@H](O)[C@@H](O)[C@@H]1O [KANAMYCIN]
- MIC [1]: 5 µg/mL (≈ 10.3 µM)

Structure (SMILES): COc1cc2c(ccc3c(C)c(C)ccc32)cc1C(C)C [MULTICAULIN]
- MIC [1]: 5.6 µg/mL (≈ 20.1 µM)
- MIC (Staphylococcus aureus [13]): 0.2 µg/mL (≈ 0.718 µM)
- inhibition zone (IZ) (Staphylococcus aureus [2]): >7 mm
- MIC (Escherichia coli [12]): 0.7 µg/mL (≈ 2.51 µM)
- inhibition zone (IZ) (Escherichia coli [3]): >7 mm
- MIC (Proteus mirabilis [14]): 1.4 µg/mL (≈ 5.03 µM)
- inhibition zone (IZ) (Proteus mirabilis [4]): >7 mm
- Activity (Klebsiella pneumoniae [6]): inactive
- MIC (Streptococcus [7]): 0.2 µg/mL (≈ 0.718 µM)
- inhibition zone (IZ) (Streptococcus [8]): >7 mm
- Activity (Enterococcus faecalis [9]): inactive
- Activity (Pseudomonas aeruginosa [11]): inactive

Structure (SMILES): COc1cc2c3c(ccc2c(C)c1C)C=C(C(C)C)C(=O)C3=O [MULTIORTHOQUINONE]
- MIC [1]: 2 µg/mL (≈ 6.49 µM)
- MIC (Staphylococcus aureus [13]): 0.1 µg/mL (≈ 0.324 µM)
- inhibition zone (IZ) (Staphylococcus aureus [2]): >7 mm
- Activity (Escherichia coli [3]): inactive
- Activity (Proteus mirabilis [4]): inactive
- Activity (Klebsiella pneumoniae [6]): inactive
- MIC (Streptococcus [7]): 0.1 µg/mL (≈ 0.324 µM)
- inhibition zone (IZ) (Streptococcus [8]): >7 mm
- MIC (Enterococcus faecalis [15]): 2 µg/mL (≈ 6.49 µM)
- inhibition zone (IZ) (Enterococcus faecalis [9]): >7 mm
- MIC (Pseudomonas aeruginosa [10]): 0.5 µg/mL (≈ 1.62 µM)
- inhibition zone (IZ) (Pseudomonas aeruginosa [11]): >7 mm

Structure (SMILES): CO[C@H]1/C=C/O[C@@]2(C)Oc3c(C)c(O)c4c(O)c(c(/C=N/N5CCN(C)CC5)c(O)c4c3C2=O)NC(=O)/C(C)=C\C=C\[C@H](C)[C@H](O)[C@@H](C)[C@@H](O)[C@@H](C)[C@H](OC(C)=O)[C@@H]1C [RIFAMPIN]
- MIC [1]: 0.5 µg/mL (≈ 0.608 µM)

Structure (SMILES): C=C[C@]1(C)C=C2[C@@H](O)C[C@H]3C(C)(C)C(=O)CC[C@]3(C)[C@]2(O)C(=O)C1 [SALVIPIMARONE]
- MIC [1]: 7.3 µg/mL (≈ 22 µM)
- Activity (Staphylococcus aureus [2]): inactive
- Activity (Escherichia coli [3]): inactive
- MIC (Proteus mirabilis [14]): 3.6 µg/mL (≈ 10.8 µM)
- inhibition zone (IZ) (Proteus mirabilis [4]): >7 mm
- Activity (Klebsiella pneumoniae [6]): inactive
- Activity (Streptococcus [8]): inactive
- MIC (Enterococcus faecalis [15]): 3.6 µg/mL (≈ 10.8 µM)
- Activity (Enterococcus faecalis [9]): inactive
- Activity (Pseudomonas aeruginosa [11]): inactive

Structure (SMILES): CN[C@@H]1[C@H](O[C@H]2[C@H](O[C@H]3[C@H](O)[C@@H](O)[C@H](N=C(N)N)[C@@H](O)[C@@H]3N=C(N)N)O[C@@H](C)[C@]2(O)C=O)O[C@@H](CO)[C@H](O)[C@H]1O [STREPTOMYCIN]
- MIC [1]: 2 µg/mL (≈ 3.44 µM)

From ChEMBL document CHEMBL1158325, “Norditerpenoids and diterpenoids from Salvia multicaulis with antituberculous activity” (1997)
